Columns and labels:
Format in all cases: biochemical
Aurora2 kinase = biological target: T1, Aurora2 kinase (Homo sapiens, UniProt O14965); test: Aurora2 kinase radioactivity scintillation assay using nickel chelate (NuMA substrate); details: 10 μM; read-out: Aurora2 % inhib at 10 μM
T1 construct: A complete recombinant Aurora2 enzyme; His tag (N); made in house; host or cells: E. coli
T1 sequence (O14965 1-403): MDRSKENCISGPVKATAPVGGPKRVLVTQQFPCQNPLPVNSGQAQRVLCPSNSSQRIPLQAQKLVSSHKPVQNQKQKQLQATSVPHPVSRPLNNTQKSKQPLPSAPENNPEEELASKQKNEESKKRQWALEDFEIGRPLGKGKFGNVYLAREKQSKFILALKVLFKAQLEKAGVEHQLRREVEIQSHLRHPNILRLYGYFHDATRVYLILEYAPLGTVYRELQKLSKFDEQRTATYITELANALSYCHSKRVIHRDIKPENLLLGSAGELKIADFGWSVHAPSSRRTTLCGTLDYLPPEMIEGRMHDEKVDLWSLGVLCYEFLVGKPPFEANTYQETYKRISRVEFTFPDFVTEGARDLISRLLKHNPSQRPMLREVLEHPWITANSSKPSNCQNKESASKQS
Method: The inhibitory effect of compounds with respect to the Aurora2 kinase is determined with a radioactivity scintillation assay using nickel chelate.
A complete recombinant Aurora2 enzyme, the N-terminal end of which was labeled with histidine, was expressed in E. coli and purified to a quality close to homogeneity.
The C-terminal fragment (Q1687-H2101) of a NuMA (Nuclear protein that associates with the Mitotic Apparatus) expressed in E. coli, and the N-terminal end of which was labeled with histidine, was purified by nickel chelate chromatography and used as substrate in the Aurora2 kinase assay. In order to determine the kinase activity, the NuMA substrate is equilibrated by chromatography on a Pharmacia PD10 column, in a buffer (50 mM Tris HCl, pH7.5, 50 mM NaCl, 10 mM MgCl2) to which 10% (v/v) of glycerol and 0.05% (w/v) of NP40 have been added.
The kinase acivitity of Aurora2 is measured by scintillation with nickel chelate (New England Nuclear, model SMP107). Each well contains 100 μl of the following solution: 0.02 μM of Aurora2; 0.5 μM of NuMA substrate; 1 μM of ATP to which 0.5 μCi of ATP-[^33P] has been added. The solutions are incubated for 30 minutes at 37° C. The assay buffer is then removed and the wells are rinsed twice with 300 μl of kinase buffer. The radioactivity is measured in each well using a Packard Model Top Count NXT device.
The background noise is deduced from the measurement of radioactivity by measuring, in duplicate, in wells containing the radioactive ATP alone containing buffered kinase treated in the same way as the other samples.
The activity of the control is determined by measuring, in duplicate, the radioactivity in the complete assay mixture (ATP, Aurora2 and the NuMA substrate) in the absence of test compound.
The inhibition of the Aurora2 with a compound of the invention is expressed as percentage inhibition of the control activity in the absence of test compound. Staurosporine is added to each plate as an inhibition control.

human FAK = biological target: T2, human FAK (Homo sapiens, UniProt Q05397); test: FAK autophosphorylation inhibition, time resolved fluorescence (HTRF) assay; details: 10 μM (values without asterisk); read-out: FAK % inhib at 10 μM
T2 construct: The complete cDNA of human FAK; made in house; host or cells: baculovirus expression system (vector pFastBac HTc)
T2 sequence (Q05397 whole entry): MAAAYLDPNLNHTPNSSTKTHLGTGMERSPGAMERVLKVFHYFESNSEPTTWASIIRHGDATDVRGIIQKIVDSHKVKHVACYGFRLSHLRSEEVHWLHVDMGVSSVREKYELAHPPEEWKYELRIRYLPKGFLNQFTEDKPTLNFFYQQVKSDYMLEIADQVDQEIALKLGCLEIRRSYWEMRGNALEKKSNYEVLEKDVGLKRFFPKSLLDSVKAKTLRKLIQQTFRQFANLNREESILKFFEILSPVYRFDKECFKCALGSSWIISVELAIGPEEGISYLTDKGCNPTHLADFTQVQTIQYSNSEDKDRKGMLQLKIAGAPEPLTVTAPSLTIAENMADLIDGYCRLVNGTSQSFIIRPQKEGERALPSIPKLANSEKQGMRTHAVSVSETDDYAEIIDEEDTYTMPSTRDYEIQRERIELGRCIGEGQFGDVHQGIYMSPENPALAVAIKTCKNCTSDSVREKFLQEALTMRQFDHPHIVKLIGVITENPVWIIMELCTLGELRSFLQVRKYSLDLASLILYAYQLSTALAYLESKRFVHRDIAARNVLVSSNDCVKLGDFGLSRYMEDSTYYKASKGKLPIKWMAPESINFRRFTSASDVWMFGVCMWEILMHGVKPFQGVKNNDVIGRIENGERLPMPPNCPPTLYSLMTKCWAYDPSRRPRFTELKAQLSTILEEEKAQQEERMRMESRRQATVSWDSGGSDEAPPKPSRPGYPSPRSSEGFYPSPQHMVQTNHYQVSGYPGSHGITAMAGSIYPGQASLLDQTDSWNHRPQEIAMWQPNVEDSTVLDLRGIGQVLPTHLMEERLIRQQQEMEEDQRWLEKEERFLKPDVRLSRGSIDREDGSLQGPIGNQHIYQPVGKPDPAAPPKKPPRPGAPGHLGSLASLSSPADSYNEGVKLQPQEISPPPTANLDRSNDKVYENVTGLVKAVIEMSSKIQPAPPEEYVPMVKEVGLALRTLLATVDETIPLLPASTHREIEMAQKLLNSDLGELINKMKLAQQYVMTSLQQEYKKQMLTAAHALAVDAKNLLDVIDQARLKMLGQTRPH
Method: The inhibitory activity of the compounds on FAK is determined by measuring the inhibition of the autophosphorylation of the enzyme using a time resolved fluorescence (HTRF) assay.
The complete cDNA of human FAK, the N-terminal end of which was labeled with histidine, was cloned into a baculovirus expression vector pFastBac HTc. The protein was expressed and purified to approximately 70% homogeneity.
The kinase activity is determined by incubating the enzyme (6.6 μg/ml) with various concentrations of test compound in a 50 mM Hepes buffer, pH=7.2, containing 10 mM MgCl2, 100 μM Na3VO4 and 15 μM d'ATP for 1 hour at 37° C. The enzyme reaction is stopped by adding Hepes buffer, pH=7.0, containing […], 133 mM EDTA and 0.1% BSA, and the labeling is carried out, over 1 to 2 hours at ambient temperature, by adding to this buffer an anti-Histidine antibody labeled with XL665 and a monoclonal antibody phosphospecific for tyrosine, conjugated to europium cryptate (Eu-K). The characteristics of the two fluorophores are available in G. Mathis et al., Anticancer Research, 1997, 17, pages 3011-3014. The transfer of energy from the excited europium cryptate to the XL665 acceptor is proportional to the degree of autophosphorylation of FAK. The long-lived signal specific for XL-665 is measured in a Packard Discovery plate counter. All the assays are carried out in duplicate and the mean of the two assays is calculated. The inhibition of the FAK autophosphorylation activity with compounds of the invention is expressed as percentage inhibition compared to a control whose activity is measured in the absence of test compound. The [signal at 665 nm/signal at 620 nm] ratio is used for the calculation of the % inhibition.

human KDR enzyme = biological target: T3, human KDR enzyme (Homo sapiens, UniProt P35968); test: KDR substrate (PLCγ) phosphorylation, scintillation assay; details: 10 μM; read-out: KDR % inhib at 10 μM
T3 construct: The cytoplasmic domain of the human KDR enzyme; GST; made in house; host or cells: SF21 insect cells (baculovirus)
T3 sequence (P35968 786-1356 limits assumed): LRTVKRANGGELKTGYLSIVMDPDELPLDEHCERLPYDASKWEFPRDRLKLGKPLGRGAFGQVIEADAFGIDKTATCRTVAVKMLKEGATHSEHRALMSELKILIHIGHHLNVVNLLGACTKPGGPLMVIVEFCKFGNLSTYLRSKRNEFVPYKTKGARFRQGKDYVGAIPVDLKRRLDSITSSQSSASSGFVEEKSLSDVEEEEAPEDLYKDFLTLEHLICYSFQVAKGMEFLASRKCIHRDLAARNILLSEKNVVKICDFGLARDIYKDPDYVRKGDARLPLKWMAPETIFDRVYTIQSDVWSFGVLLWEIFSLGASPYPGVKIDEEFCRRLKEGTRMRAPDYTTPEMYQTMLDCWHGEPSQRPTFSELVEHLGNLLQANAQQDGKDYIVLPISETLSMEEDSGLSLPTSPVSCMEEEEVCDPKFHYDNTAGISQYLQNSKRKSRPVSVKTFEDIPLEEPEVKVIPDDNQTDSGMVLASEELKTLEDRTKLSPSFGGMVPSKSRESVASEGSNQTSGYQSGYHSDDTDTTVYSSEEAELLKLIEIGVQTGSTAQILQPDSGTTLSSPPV
Method: The inhibitory effect of the compounds is determined in an assay of substrate phosphorylation by the KDR enzyme in vitro using a scintillation technique (96-well plate, NEN).
The cytoplasmic domain of the human KDR enzyme was cloned in the form of a GST fusion into the baculovirus expression vector pFastBac. The protein was expressed in SF21 cells and purified to approximately 60% homogeneity.
The KDR kinase activity is measured in 20 mM MOPS, 10 mM MgCl2, 10 mM MnCl2, 1 mM DTT, 2.5 mM EGTA, 10 mM β-glycerophosphate, pH=7.2, in the presence of 10 mM MgCl2, 100 μM Na3VO4, 1 mM NaF. 10 μl of the compound are added to 70 μl of kinase buffer containing 100 ng of KDR enzyme at 4° C. The reaction is triggered by adding 20 μl of solution containing 2 μg of substrate (SH2-SH3 fragment of PLCγ expressed in the form of a GST fusion protein), 2 μCi γ^33P[ATP] and 2 μM cold ATP. After incubation for 1 hour at 37° C., the reaction is stopped by adding 1 volume (100 μl) of 200 mM EDTA. The incubation buffer is removed and the wells are washed three times with 300 μl of PBS. The radioactivity is measured in each well using Top Count NXT radioactivity counter (Packard).
The background noise is determined by measuring the radioactivity in four different wells containing the radioactive ATP and the substrate alone.
A control for total activity is measured in four different wells containing all the reagents (γ^33P-[ATP], KDR and PLCγ substrate) but in the absence of compound.
The inhibition of the KDR activity with the compound of the invention is expressed as percentage inhibition of the control activity determined in the absence of compound.
The compound SU5614 (Calbiochem) (1 μM) is included in each plate as an inhibition control.

Row | Compound | inhibition at 10 µM (Aurora2 kinase) [%] | inhibition at 10 µM (human FAK) [%] | inhibition at 10 µM (human KDR enzyme) [%]
1 | COc1ccc(S(=O)(=O)Nc2ccc3[nH]nc(-c4ccccc4)c3c2)cc1 [Example 120, 4-Methoxy-N-(3-phenyl-1H-indazol-5-yl)-benzenesulfonamide] | 52 | 36 | 69
2 | CC(C)(C)c1ccc(S(=O)(=O)Nc2ccc3[nH]nc(-c4ccccc4)c3c2)cc1 [Example 121, 4-tert-Butyl-N-(3-phenyl-1H-indazol-5-yl)-benzenesulfonamide] | 27 | 5 | 39
3 | Cc1ccc(S(=O)(=O)Nc2ccc3[nH]nc(-c4ccccc4)c3c2)cc1 [Example 122, 4-Methyl-N-(3-phenyl-1H-indazol-5-yl)-benzenesulfonamide] | 65 | 23 | 72
4 | CC(C)S(=O)(=O)Nc1ccc2[nH]nc(-c3ccccc3)c2c1 [Example 123, 1-Methyl-N-(3-phenyl-1H-indazol-5-yl)ethanesulfonamide] | 82 | 30 | 62
5 | CS(=O)(=O)Nc1ccc2[nH]nc(-c3ccccc3)c2c1 [Example 124, N-(3-Phenyl-1H-indazol-5-yl)-methanesulfonamide] | 60 | 16 | 55
6 | O=S(=O)(Cc1ccccc1)Nc1ccc2[nH]nc(-c3ccccc3)c2c1 [Example 125, 1-Phenyl-N-(3-phenyl-1H-indazol-5-yl)-methanesulfonamide] | 65 | 17 | 56
7 | O=S(=O)(/C=C/c1ccccc1)Nc1ccc2[nH]nc(-c3ccccc3)c2c1 [Example 126, (E)-2-Phenyl-N-(3-phenyl-1H-indazol-5-yl)-ethylenesulfonamide] | 50 | 7 | 58
8 | CCS(=O)(=O)Nc1ccc2[nH]nc(-c3ccccc3)c2c1 [Example 127, N-(3-Phenyl-1H-indazol-5-yl)-ethanesulfonamide] | 78 | 32 | 63
9 | CCCS(=O)(=O)Nc1ccc2[nH]nc(-c3ccccc3)c2c1 [Example 128, N-(3-Phenyl-1H-indazol-5-yl)propanesulfonamide] | 87 | 55 | 49
10 | N#Cc1ccc(S(=O)(=O)Nc2ccc3[nH]nc(-c4ccccc4)c3c2)cc1 [Example 143, 4-Cyano-N-(3-phenyl-1H-indazol-5-yl)-benzenesulfonamide] | 64 | 23 | 87
11 | CCCCOc1ccc(S(=O)(=O)Nc2ccc3[nH]nc(-c4ccccc4)c3c2)cc1 [Example 145, 4-Butoxy-N-(3-phenyl-1H-indazol-5-yl)-benzenesulfonamide] | 26 | 0 | 14
12 | CC(=O)Nc1ccc(S(=O)(=O)Nc2ccc3[nH]nc(-c4ccccc4)c3c2)cc1Cl [Example 146, N-[2-Chloro-4-(3-phenyl-1H-indazol-5-ylsulfamoyl)phenyl]-acetamide] | 57 | 14 | 47
13 | O=S(=O)(Nc1ccc2[nH]nc(-c3ccccc3)c2c1)c1ccc(-c2ccon2)s1 [Example 150, N-(3-Phenyl-1H-indazol-5-yl)-(5-isoxazol-3-ylthiophene)-2-sulfonamide] | 82 | 3 | 75
14 | O=[N+]([O-])c1ccccc1CS(=O)(=O)Nc1ccc2[nH]nc(-c3ccccc3)c2c1 [Example 151, C-(2-Nitrophenyl)-N-(3-phenyl-1H-indazol-5-yl)-methanesulfonamide] | 84 | 33 | 63
15 | Cc1c(S(=O)(=O)Nc2ccc3[nH]nc(-c4ccccc4)c3c2)sc2ccc(Cl)cc12 [Example 153, N-(3-Phenyl-1H-indazol-5-yl)-(5-chloro-3-methyl-benzo[b]thiophene)-2-sulfonamide] | 25 | 0 | 24
16 | O=S(=O)(Nc1ccc2[nH]nc(-c3ccccc3)c2c1)c1cccc(-c2ccccc2)c1 [Example 157, N-(3-Phenyl-1H-indazol-5-yl)-biphenyl-3-sulfonamide] | 38 | 0 | 63
17 | O=S(=O)(Nc1ccc2[nH]nc(-c3ccccc3)c2c1)c1ccc(OC(F)(F)F)cc1 [Example 160, 4-Trifluoromethoxy-N-(3-phenyl-1H-indazol-5-yl)benzenesulfonamide] | 26 | 3 | 51
18 | COc1ccc(Cl)cc1-c1n[nH]c2ccc(NS(=O)(=O)c3ccccc3S(C)(=O)=O)cc12 [Example 215, N-[3-(5-Chloro-2-methoxy-phenyl)-1H-indazol-5-yl]-2-methanesulfonyl-benzenesulfonamide] | 86 | 97 | 39

Reference: patent US6858638B2, “Substituted indazoles, compositions containing them, method of production and use” (Aventis Pharma S.A., priority 2002, dated 2005)
